25 molecules from PubChem BioAssay AID330 (DTP/NCI, 2004) can be followed below.

Where “and” joins values, the source holds several entries; their conditions need not be identical. Equal entries are not always repeated. Inconclusive results and toxic doses are left out.

The test system of this assay is P388 leukemia ip, CD2F1 mice, survival T/C. Briefly: NCI In Vivo Anticancer Drug Screen. Data for tumor model P388 Leukemia (intraperitoneal) in CD2F1 (CDF1) mice. Particulars: endpoint: median survival time, higher = longer survival. Summed up: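 Mice carrying the transplanted tumor received test compound or vehicle. Survival was recorded in each group, and the value is the treated-group measurement divided by that of the vehicle-treated control group.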

Where [1] appears, read: dose: 100.0 mg/kg/injection, schedule: Q01DX001 (ip), vehicle: Klucel (hydroxypropylcellulose) (HPC).
The mark [2] stands for this setting: dose: 200.0 mg/kg/injection, schedule: Q01DX001 (ip), vehicle: Klucel (hydroxypropylcellulose) (HPC).
Setting [3] is: dose: 400.0 mg/kg/injection, schedule: Q01DX001 (ip), vehicle: Klucel (hydroxypropylcellulose) (HPC).
Where [4] appears, read: dose: 50.0 mg/kg/injection, schedule: Q01DX009 (ip), vehicle: suspension in saline.
Where [5] appears, read: dose: 100.0 mg/kg/injection, schedule: Q01DX009 (ip), vehicle: suspension in saline.
[6] abbreviates: dose: 100.0 mg/kg/injection, schedule: Q01DX009 (ip), vehicle: saline with Tween-80.
[7] abbreviates: dose: 200.0 mg/kg/injection, schedule: Q01DX009 (ip), vehicle: saline with Tween-80.
Setting [8] is: dose: 50.0 mg/kg/injection, schedule: Q01DX005 (ip), vehicle: saline with Tween-80.
The mark [9] stands for this setting: dose: 100.0 mg/kg/injection, schedule: Q01DX005 (ip), vehicle: saline with Tween-80.
The mark [10] stands for this setting: dose: 200.0 mg/kg/injection, schedule: Q01DX005 (ip), vehicle: saline with Tween-80.
Where [11] appears, read: dose: 50.0 mg/kg/injection, schedule: Q01DX009 (ip), vehicle: saline with Tween-80.

Take `CCCCN(CCCC)c1ccc(C(=N)c2ccc(N(CCCC)CCCC)cc2)cc1`: the T/C is 108 % of control (dose: 6.25 mg/kg/injection, schedule: Q01DX005 (ip), vehicle: Klucel (hydroxypropylcellulose) (HPC)); 108 % of control (dose: 12.5 mg/kg/injection, schedule: Q01DX005 (ip), vehicle: Klucel (hydroxypropylcellulose) (HPC)); 117 % of control (dose: 25.0 mg/kg/injection, schedule: Q01DX005 (ip), vehicle: Klucel (hydroxypropylcellulose) (HPC)).

For `COc1ccc2[nH]c3c(C)c4ccn5c(=O)c6ccccc6cc5c4c(C)c3c2c1`, the T/C by setting is: (dose: 0.1 mg/kg/injection, schedule: Q04DX003 (ip), vehicle: distilled water + Tween-80) 87 % of control; (dose: 0.2 mg/kg/injection, schedule: Q04DX003 (ip), vehicle: distilled water + Tween-80) 100 % of control; (dose: 0.4 mg/kg/injection, schedule: Q04DX003 (ip), vehicle: distilled water + Tween-80) 91 % of control; (dose: 0.78 mg/kg/injection, schedule: Q04DX003 (ip), vehicle: distilled water + Tween-80) 87 % of control; (dose: 0.8 mg/kg/injection, schedule: Q04DX003 (ip), vehicle: distilled water + Tween-80) 92 % of control; (dose: 200.0 mg/kg/injection, schedule: Q04DX003 (ip), vehicle: distilled water + Tween-80) 91 % of control.

Turning to `Cc1ccc(NC(=O)/C(Cl)=C2/Sc3ccccc3NC2=O)cc1`, the T/C is 96 % of control (dose: 60.0 mg/kg/injection, schedule: Q01DX005 (ip), vehicle: saline with Tween-80); 100 % of control (dose: 120.0 mg/kg/injection, schedule: Q01DX005 (ip), vehicle: saline with Tween-80); 95 % of control (dose: 240.0 mg/kg/injection, schedule: Q01DX005 (ip), vehicle: saline with Tween-80).

Consider `CC(C)N[C@@H]1CCC[C@H]1O`, for which the T/C was 105 % of control under setting [1], 113 % of control under setting [2] and 115 % of control under setting [3].

With `COC(=O)CCSC(=O)Nc1ccc(C)cc1`, the T/C is, setting by setting: (dose: 50.0 mg/kg/injection, schedule: Q01DX005 (ip), vehicle: Klucel (hydroxypropylcellulose) (HPC)) 101 % of control; (dose: 100.0 mg/kg/injection, schedule: Q01DX005 (ip), vehicle: Klucel (hydroxypropylcellulose) (HPC)) 100 % of control; (dose: 200.0 mg/kg/injection, schedule: Q01DX005 (ip), vehicle: Klucel (hydroxypropylcellulose) (HPC)) 105 % of control.

Take `COc1cc(Br)c(C(=O)Nc2ccccc2)cc1OC`: the T/C reads like this: (dose: 25.0 mg/kg/injection, schedule: Q01DX009 (ip), vehicle: other) 97 % of control; (dose: 50.0 mg/kg/injection, schedule: Q01DX009 (ip), vehicle: other) 97 % of control; (dose: 100.0 mg/kg/injection, schedule: Q01DX009 (ip), vehicle: other) 91 % of control; (dose: 200.0 mg/kg/injection, schedule: Q01DX009 (ip), vehicle: other) 97 % of control; (dose: 400.0 mg/kg/injection, schedule: Q01DX009 (ip), vehicle: other) 97 % of control.

Consider `Cc1c(-c2ccccc2)oc(=O)c(Cl)c1N(C)c1ccccc1`, for which the T/C was 94 % of control (dose: 100.0 mg/kg/injection, schedule: Q01DX001 (ip), vehicle: saline with Tween-80); 99 % of control (dose: 200.0 mg/kg/injection, schedule: Q01DX001 (ip), vehicle: saline with Tween-80); 91 % of control (dose: 400.0 mg/kg/injection, schedule: Q01DX001 (ip), vehicle: saline with Tween-80).

With `c1ccc2c[s+]ccc2c1`, the T/C was 90 % of control under setting [4] and 97 % of control under setting [5].

With `CNC(=O)Oc1cccc2c(OC3OC(CO)C(O)C(O)C3O)cccc12` (centres undefined), the T/C by setting is: (dose: 100.0 mg/kg/injection, schedule: Q04DX003 (ip), vehicle: Klucel (hydroxypropylcellulose) (HPC)) 97 % of control; (dose: 200.0 mg/kg/injection, schedule: Q04DX003 (ip), vehicle: Klucel (hydroxypropylcellulose) (HPC)) 106 % of control; (dose: 400.0 mg/kg/injection, schedule: Q04DX003 (ip), vehicle: Klucel (hydroxypropylcellulose) (HPC)) 101 % of control.

Take `CCCn1c(O)c(C=N)c(=O)n(CCC)c1=O`: the T/C was 95 % of control under setting [6]; 100 % of control under setting [7]; 100 % of control (dose: 400.0 mg/kg/injection, schedule: Q01DX009 (ip), vehicle: saline with Tween-80).

As to `COc1ccc(C(c2cc(C(C)(C)C)cc(C(C)(C)C)c2O)N2CCOCC2)cc1` (centres undefined), the T/C is, setting by setting: (dose: 50.0 mg/kg/injection, schedule: Q01DX005 (ip), vehicle: distilled water + alcohol) 99 % of control; (dose: 100.0 mg/kg/injection, schedule: Q01DX005 (ip), vehicle: distilled water + alcohol) 103 % of control; (dose: 200.0 mg/kg/injection, schedule: Q01DX005 (ip), vehicle: distilled water + alcohol) 99 % of control.

Regarding `COc1cc2c(c(OC)c1OC)-c1ccc(OC)c(=O)cc1C(NC(=O)COc1ccccc1)CC2` (centres undefined), the T/C is 120 % of control (dose: 0.16 mg/kg/injection, schedule: Q01DX009 (ip), vehicle: Klucel (hydroxypropylcellulose) (HPC)); 164 % of control and 171 % of control (dose: 1.25 mg/kg/injection, schedule: Q01DX009 (ip), vehicle: Klucel (hydroxypropylcellulose) (HPC)); 104 % of control and 207 % of control (dose: 2.5 mg/kg/injection, schedule: Q01DX009 (ip), vehicle: Klucel (hydroxypropylcellulose) (HPC)).

As to `O=C1C(CCl)(CCl)CCC1(CCl)CCl`, the T/C under setting [8] is 100 % of control, the T/C under setting [9] is 105 % of control and the T/C under setting [10] was 94 % of control.

Take `c1ccc(-c2cnc3nc4[nH]c5ccccc5c4nn23)cc1`: the T/C runs as follows: under setting [8], 98 % of control; under setting [9], 92 % of control; under setting [10], 98 % of control.

Take `COc1cccc2c1C(=O)c1c(O)c3c(c(O)c1C2=O)C[C@@](O)(C(C)=O)C[C@@H]3OC1CC(N2CCOCC2)C(O)C(C)O1` (some centres undefined): the T/C is 112 % of control (dose: 25.0 micrograms/kg/injection, schedule: Q04DX003 (ip), vehicle: water); 101 % of control and 98 % of control and 108 % of control (dose: 50.0 micrograms/kg/injection, schedule: Q04DX003 (ip), vehicle: water); 115 % of control [middle of 4 runs] (dose: 100.0 micrograms/kg/injection, schedule: Q04DX003 (ip), vehicle: water).

`Cc1ccccc1C1SCC(=O)N1c1ccccn1` (centres undefined): the T/C runs as follows: under setting [11], 104 % of control; under setting [6], 101 % of control; under setting [7], 95 % of control.

As to `CC(=O)c1ccc(N=C2c3ccccc3CN2c2ccc(C(C)=O)cc2)cc1`, the T/C reads like this: under setting [8], 88 % of control; under setting [9], 89 % of control.

In the case of `CCCCCCCCC#CCCCCCCCCCCCC(=O)O`, the T/C by setting is: under setting [11], 88 % of control; under setting [7], 90 % of control.

Consider `CC(O)C(NC(=O)SCc1ccccc1)C(=O)O` (centres undefined), for which the T/C by setting is: under setting [8], 101 % of control; under setting [9], 90 % of control; under setting [10], 92 % of control.

With `Fc1cccc2c(SCCCCCSc3c4ccccc4nc4c(F)cccc34)c3ccccc3nc12`, the T/C is 93 % of control (dose: 60.0 mg/kg/injection, schedule: Q01DX005 (ip), vehicle: Klucel (hydroxypropylcellulose) (HPC)) and 89 % of control (dose: 120.0 mg/kg/injection, schedule: Q01DX005 (ip), vehicle: Klucel (hydroxypropylcellulose) (HPC)).

`CCCCNc1ccc(-c2c(N)nc(N)nc2CC)cc1N`: the T/C under setting [1] was 101 % of control, the T/C under setting [2] was 93 % of control and the T/C under setting [3] is 94 % of control.

Regarding `O=C(O)C(Cl)Cc1cnc[nH]1` (centres undefined), the T/C runs as follows: (dose: 100.0 mg/kg/injection, schedule: Q04DX003 (ip), vehicle: saline) 103 % of control; (dose: 200.0 mg/kg/injection, schedule: Q04DX003 (ip), vehicle: saline) 91 % of control; (dose: 400.0 mg/kg/injection, schedule: Q04DX003 (ip), vehicle: saline) 91 % of control.

As to `Cc1cc(=O)oc2cc(NCS(=O)(=O)O)ccc12`, the T/C by setting is: (dose: 50.0 mg/kg/injection, schedule: Q01DX005 (ip), vehicle: saline) 100 % of control; (dose: 100.0 mg/kg/injection, schedule: Q01DX005 (ip), vehicle: saline) 98 % of control; (dose: 200.0 mg/kg/injection, schedule: Q01DX005 (ip), vehicle: saline) 97 % of control.

For `Fc1ccc(NC(=S)SCc2ccccc2)cc1`, the T/C under setting [4] is 101 % of control; the T/C under setting [5] was 101 % of control; the T/C (dose: 200.0 mg/kg/injection, schedule: Q01DX009 (ip), vehicle: suspension in saline) is 101 % of control.

Turning to `O=C(O)C(Cc1cccc(F)c1)NC(=O)C(F)(F)F` (centres undefined), the T/C (dose: 6.25 mg/kg/injection, schedule: Q01DX009 (ip), vehicle: saline) is 98 % of control.
